Measured values from patent US9802992B2, “Cell into which protein, which can serve as polymerization nucleus of protein polymer, or polymer thereof is introduced, and method for production of the cell” (TOKYO ME[…] OF MEDICAL SCIENCE, priority 2005, dated 2017).

Columns and labels:
α-synuclein = target: T1, α-synuclein (Homo sapiens, UniProt P37840); assay: Inhibition of fibrillization of α-synuclein in vitro (thioflavin S fluorescence); type: biochemical; conditions: 2 mg/mL α-synuclein, shaking at 37° C., 20 μM Gossypetin, compared with sample without Gossypetin (FIG. 7)
T1 construct: made in house; host or cells: E. coli BL21(DE3), pRK172 vector
Method: Gossypetin, a polyphenol compound may be taken as an example of a candidate substance. Gossypetin is a flavonol contained in Gossypium herbaceum LINNE and is polyphenol compound used as a food additive. For example, it is possible to investigate whether Gossypetin inhibits fibrillization of α-synuclein in vitro by incubating α-synuclein in the presence of Gossypetin, adding thioflavin S to the solution after the reaction and measuring the fluorescence intensity. Thioflavin S is a test reagent which emits fluorescence upon binding to a protein which can serve as a polymerization nucleus of a protein polymer, or a protein polymer thereof, which are rich in β-sheet structure and which therefore can be used to determine the presence or absence of a protein which can serve as a polymerization nucleus of a protein polymer, or a protein polymer thereof. In contrast, since α-synuclein fibrils are rich in β-sheet structure, if Gossypetin inhibits fibrillization of α-synuclein, the fluorescence intensity should be lower than samples to which Gossypetin has not been added.
[…] Fluorescence intensity was measured using a Hitachi F4000 spectrophotometer (excitation wavelength 440 nm, fluorescence wavelength 520 nm).
2 mg/mL of α-synuclein was incubated with shaking at 37° C. in the presence or absence of 20 μM of Gossypetin. Fibril formation was measured by thioflavin S fluorescence. […]

[1] = test system: SH-SY5Y cells into which α-synuclein plasmid and fibrils are introduced (WT+FαS cells); assay: Cell death assay (LDH leakage) in the cellular model of α-synuclein proteinopathy; type: cell-based; conditions: Gossypetin (20 μM), incubated three days; without polyphenol approximately 50% (FIG. 8)
Method: A cell death assay was performed using cells into which pcDNA3-α-syn vector and α-synuclein fibrils are introduced, and which had been incubated for three days either in the presence or the absence of a fibrillization inhibitor. Gossypetin (20 μM) which is a type of polyphenol was used as the fibrillization inhibitor.
After incubation for three days, a portion of the cell media in the culture was harvested. The cells from the remaining media were prepared as a Tris-soluble fraction in the same manner as the Tris-soluble fraction described above. A cell death assay was performed on the harvested media and the Tris-soluble fraction using a CYTOTOX 96™ Non-Radioactive Cytotoxicity Assay Kit (Promega). The method was performed in accordance with the explanatory material accompanying the kit.
A cell death assay was performed on the following three types of cells: untreated cells (none), FαS cells into which only α-synuclein fibril was introduced, and WT+FαS cells into which fibril and α-synuclein plasmid DNA were introduced. After culturing the cells for three days, cell death was evaluated by lactate dehydrogenase (LDH) leakage assay. This assay is based on determining how much LDH originally inside the cell has leaked outside the cell as a result of cell death.
Gossypetin was added to SH-SY5Y cells into which α-synuclein plasmid and fibrils are introduced, and incubated for three days. […]

O=c1c(O)c(-c2ccc(O)c(O)c2)oc2c(O)c(O)cc(O)c12 [Gossypetin]
thioflavin S fluorescence intensity (fibril formation of α-synuclein) (α-synuclein): conspicuous decrease
rate of cell death [1]: conspicuous inhibition
